Test results as given in article PMC9250534, “Synthesis and direct assay of large macrocycle diversities by combinatorial late-stage modification at picomole scale” (Nature Communications, 2022).

These compounds were tested against MDM2 (Homo sapiens, UniProt Q00987) (assay: MDM2 binding screen of Libraries 3 and 4: displacement of fluorescent probe F-M8 at 750 nM macrocycle). Conditions: Panel b, Library 3: 63 scaffolds combinatorially acylated with 15 carboxylic acids at 30 picomole scale; displacement of fluorescent peptide probe; macrocycle 750 nM.
In short: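 Cyclic peptide scaffolds were acylated in DMSO with carboxylic acids (20 equiv.), HBTU and DABCO for 6 h at room temperature. Reactions were quenched overnight in 100 mM Tris-Cl pH 7.4, 0.01% Tween20. The fluorescein conjugate was also competed with nutlin-3a.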

Chain of MDM2 (Q00987 whole entry): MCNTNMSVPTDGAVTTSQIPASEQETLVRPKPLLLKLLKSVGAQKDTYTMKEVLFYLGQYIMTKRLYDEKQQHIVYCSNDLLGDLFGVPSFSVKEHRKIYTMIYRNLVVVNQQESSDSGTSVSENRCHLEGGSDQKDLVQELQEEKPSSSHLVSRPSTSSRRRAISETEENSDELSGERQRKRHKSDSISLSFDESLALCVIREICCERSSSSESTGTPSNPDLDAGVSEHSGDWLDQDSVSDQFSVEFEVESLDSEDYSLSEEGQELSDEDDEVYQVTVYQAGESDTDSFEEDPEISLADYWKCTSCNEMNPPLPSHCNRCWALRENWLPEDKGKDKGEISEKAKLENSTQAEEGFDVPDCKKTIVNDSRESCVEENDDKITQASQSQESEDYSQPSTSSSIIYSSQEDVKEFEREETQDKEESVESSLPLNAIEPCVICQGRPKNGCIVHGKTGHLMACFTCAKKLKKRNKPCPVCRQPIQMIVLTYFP

Row | fraction of fluorescent probe displaced | SMILES
1 | -0.172 | O=C(NC[C@@H]1NC(=O)[C@H]2CCCN(C2)C(=O)CCSSCCNC(=O)[C@@H](Cc2c[nH]c3ccccc23)NC1=O)c1ccc(Cl)s1 [X-Nip-Dap-D-Trp + Acid 14]
2 | -0.045 | O=C(NC[C@@H]1NC(=O)[C@H]2CCCN(C2)C(=O)CCSSCCNC(=O)[C@@H](Cc2c[nH]c3ccccc23)NC1=O)c1ccc(Cl)cc1 [X-Nip-Dap-D-Trp + Acid 25]
3 | -0.015 | O=C(/C=C/c1ccncc1)NC[C@@H]1NC(=O)[C@H]2CCCN(C2)C(=O)CCSSCCNC(=O)[C@@H](Cc2c[nH]c3ccccc23)NC1=O [X-Nip-Dap-D-Trp + Acid 106]
4 | 0.044 | O=C(NC[C@@H]1NC(=O)[C@H]2CCCN(C2)C(=O)CCSSCCNC(=O)[C@@H](Cc2c[nH]c3ccccc23)NC1=O)c1ccc2ccccc2c1 [X-Nip-Dap-D-Trp + Acid 107]
5 | 0.00133 | O=C(/C=C/c1ccc(OCc2ccccc2)cc1)NC[C@@H]1NC(=O)[C@H]2CCCN(C2)C(=O)CCSSCCNC(=O)[C@@H](Cc2c[nH]c3ccccc23)NC1=O [X-Nip-Dap-D-Trp + Acid 110]
6 | 0.021 | O=C(/C=C/c1ccc2ccccc2c1)NC[C@@H]1NC(=O)[C@H]2CCCN(C2)C(=O)CCSSCCNC(=O)[C@@H](Cc2c[nH]c3ccccc23)NC1=O [X-Nip-Dap-D-Trp + Acid 112]
7 | -0.00533 | CC(Oc1cccc(Cl)c1)C(=O)NC[C@@H]1NC(=O)[C@H]2CCCN(C2)C(=O)CCSSCCNC(=O)[C@@H](Cc2c[nH]c3ccccc23)NC1=O (stereo partly drawn) [X-Nip-Dap-D-Trp + Acid 113]
8 | 0.00133 | O=C(CCS(=O)(=O)c1ccccc1)NC[C@@H]1NC(=O)[C@H]2CCCN(C2)C(=O)CCSSCCNC(=O)[C@@H](Cc2c[nH]c3ccccc23)NC1=O [X-Nip-Dap-D-Trp + Acid 114]
9 | 0.028 | Cn1cc(C[C@@H]2NC(=O)[C@H](CNC(=O)c3ccc(Cl)s3)NC(=O)[C@H]3CCCN(C3)C(=O)CCSSCCNC2=O)c2ccccc21 [X-Nip-Dap-Me-Trp + Acid 14]
10 | 0.076 | Cn1cc(C[C@@H]2NC(=O)[C@H](CNC(=O)c3ccc4ccccc4c3)NC(=O)[C@H]3CCCN(C3)C(=O)CCSSCCNC2=O)c2ccccc21 [X-Nip-Dap-Me-Trp + Acid 107]
11 | 0.075 | Cn1cc(C[C@@H]2NC(=O)[C@H](CNC(=O)/C=C/c3ccc(Cl)cc3)NC(=O)[C@H]3CCCN(C3)C(=O)CCSSCCNC2=O)c2ccccc21 [X-Nip-Dap-Me-Trp + Acid 108]
12 | 0.188 | Cn1cc(C[C@@H]2NC(=O)[C@H](CNC(=O)/C=C/c3ccc4ccccc4c3)NC(=O)[C@H]3CCCN(C3)C(=O)CCSSCCNC2=O)c2ccccc21 [X-Nip-Dap-Me-Trp + Acid 112]
13 | -0.00533 | Cn1cc(C[C@@H]2NC(=O)[C@H](CNC(=O)CCS(=O)(=O)c3ccccc3)NC(=O)[C@H]3CCCN(C3)C(=O)CCSSCCNC2=O)c2ccccc21 [X-Nip-Dap-Me-Trp + Acid 114]
14 | 0.028 | Cn1cc(C[C@@H]2NC(=O)[C@H](CNC(=O)C3COc4ccccc4O3)NC(=O)[C@H]3CCCN(C3)C(=O)CCSSCCNC2=O)c2ccccc21 (stereo partly drawn) [X-Nip-Dap-Me-Trp + Acid 115]
15 | 0.00133 | CN1C(=O)[C@H](CNC(=O)c2ccc(Cl)cc2)NC(=O)[C@H]2CCCN(C2)C(=O)CCSSCCNC(=O)[C@@H]1Cc1c[nH]c2ccccc12 [X-Nip-Dap-NMe-Trp + Acid 25]
16 | -0.021 | CN1C(=O)[C@H](CNC(=O)/C=C/c2ccncc2)NC(=O)[C@H]2CCCN(C2)C(=O)CCSSCCNC(=O)[C@@H]1Cc1c[nH]c2ccccc12 [X-Nip-Dap-NMe-Trp + Acid 106]
17 | 0.031 | CN1C(=O)[C@H](CNC(=O)c2ccc3ccccc3c2)NC(=O)[C@H]2CCCN(C2)C(=O)CCSSCCNC(=O)[C@@H]1Cc1c[nH]c2ccccc12 [X-Nip-Dap-NMe-Trp + Acid 107]
18 | 0.00133 | CN1C(=O)[C@H](CNC(=O)/C=C/c2ccc(Cl)cc2)NC(=O)[C@H]2CCCN(C2)C(=O)CCSSCCNC(=O)[C@@H]1Cc1c[nH]c2ccccc12 [X-Nip-Dap-NMe-Trp + Acid 108]
19 | 0.015 | CN1C(=O)[C@H](CNC(=O)/C=C/c2ccc(OCc3ccccc3)cc2)NC(=O)[C@H]2CCCN(C2)C(=O)CCSSCCNC(=O)[C@@H]1Cc1c[nH]c2ccccc12 [X-Nip-Dap-NMe-Trp + Acid 110]
20 | -0.019 | CN1C(=O)[C@H](CNC(=O)c2cccc(Oc3ccccc3)c2)NC(=O)[C@H]2CCCN(C2)C(=O)CCSSCCNC(=O)[C@@H]1Cc1c[nH]c2ccccc12 [X-Nip-Dap-NMe-Trp + Acid 111]
21 | 0.015 | CN1C(=O)[C@H](CNC(=O)/C=C/c2ccc3ccccc3c2)NC(=O)[C@H]2CCCN(C2)C(=O)CCSSCCNC(=O)[C@@H]1Cc1c[nH]c2ccccc12 [X-Nip-Dap-NMe-Trp + Acid 112]
22 | 0.021 | CN1C(=O)[C@H](CNC(=O)CCS(=O)(=O)c2ccccc2)NC(=O)[C@H]2CCCN(C2)C(=O)CCSSCCNC(=O)[C@@H]1Cc1c[nH]c2ccccc12 [X-Nip-Dap-NMe-Trp + Acid 114]
23 | -0.012 | CN1C(=O)[C@H](CNC(=O)C2COc3ccccc3O2)NC(=O)[C@H]2CCCN(C2)C(=O)CCSSCCNC(=O)[C@@H]1Cc1c[nH]c2ccccc12 (stereo partly drawn) [X-Nip-Dap-NMe-Trp + Acid 115]
24 | 0.208 | O=C(NC[C@@H]1NC(=O)[C@H]2CCCN(C2)C(=O)CCSSCCNC(=O)[C@H](Cc2c[nH]c3ccccc23)NC1=O)c1ccc(Cl)s1 [X-Nip-Dap-Trp + Acid 14]
25 | 0.194 | O=C(NC[C@@H]1NC(=O)[C@H]2CCCN(C2)C(=O)CCSSCCNC(=O)[C@H](Cc2c[nH]c3ccccc23)NC1=O)c1ccc(Cl)cc1 [X-Nip-Dap-Trp + Acid 25]
26 | 0.440 | O=C(NC[C@@H]1NC(=O)[C@H]2CCCN(C2)C(=O)CCSSCCNC(=O)[C@H](Cc2c[nH]c3ccccc23)NC1=O)c1ccc2ccccc2c1 [X-Nip-Dap-Trp + Acid 107]
27 | 0.421 | O=C(/C=C/c1ccc(Cl)cc1)NC[C@@H]1NC(=O)[C@H]2CCCN(C2)C(=O)CCSSCCNC(=O)[C@H](Cc2c[nH]c3ccccc23)NC1=O [X-Nip-Dap-Trp + Acid 108]
28 | 0.015 | O=C(/C=C/c1ccc(OCc2ccccc2)cc1)NC[C@@H]1NC(=O)[C@H]2CCCN(C2)C(=O)CCSSCCNC(=O)[C@H](Cc2c[nH]c3ccccc23)NC1=O [X-Nip-Dap-Trp + Acid 110]
29 | 0.574 | O=C(/C=C/c1ccc2ccccc2c1)NC[C@@H]1NC(=O)[C@H]2CCCN(C2)C(=O)CCSSCCNC(=O)[C@H](Cc2c[nH]c3ccccc23)NC1=O [X-Nip-Dap-Trp + Acid 112]
30 | -0.012 | O=C(CCS(=O)(=O)c1ccccc1)NC[C@@H]1NC(=O)[C@H]2CCCN(C2)C(=O)CCSSCCNC(=O)[C@H](Cc2c[nH]c3ccccc23)NC1=O [X-Nip-Dap-Trp + Acid 114]

Same assay, conditions: Panel c, Library 4: best nine scaffolds and 15 additional carboxylic acids; displacement of fluorescent probe

Row | fraction of fluorescent probe displaced | SMILES
31 | 0.207 | O=C(/C=C/c1cccc(Cl)c1)NC[C@@H]1NC(=O)[C@H]2CCCN(C2)C(=O)CCSSCCNC(=O)[C@H](Cc2c[nH]c3cc(Cl)ccc23)NC1=O [X-Nip-Dap-Cl-Trp + Acid 121]
32 | 0.166 | O=C(/C=C/c1cccc(C(F)(F)F)c1)NC[C@@H]1NC(=O)[C@H]2CCCN(C2)C(=O)CCSSCCNC(=O)[C@H](Cc2c[nH]c3cc(Cl)ccc23)NC1=O [X-Nip-Dap-Cl-Trp + Acid 122]
33 | 0.109 | CC(C)c1ccc(/C=C/C(=O)NC[C@@H]2NC(=O)[C@H]3CCCN(C3)C(=O)CCSSCCNC(=O)[C@H](Cc3c[nH]c4cc(Cl)ccc34)NC2=O)cc1 [X-Nip-Dap-Cl-Trp + Acid 127]
34 | 0.044 | O=C(NC[C@@H]1NC(=O)[C@H]2CCCN(C2)C(=O)CCSSCCNC(=O)[C@H](Cc2c[nH]c3cc(Cl)ccc23)NC1=O)c1cnc2ccccc2n1 [X-Nip-Dap-Cl-Trp + Acid 130]
35 | 0.052 | Cn1cc(C[C@@H]2NC(=O)[C@H](CNC(=O)/C=C/c3ccc(F)cc3)NC(=O)[C@H]3CCCN(C3)C(=O)CCSSCCNC2=O)c2ccccc21 [X-Nip-Dap-Me-Trp + Acid 116]
36 | 0.085 | Cn1cc(C[C@@H]2NC(=O)[C@H](CNC(=O)/C=C/c3ccc(Cl)c(Cl)c3)NC(=O)[C@H]3CCCN(C3)C(=O)CCSSCCNC2=O)c2ccccc21 [X-Nip-Dap-Me-Trp + Acid 119]
37 | 0.118 | Cn1cc(C[C@@H]2NC(=O)[C@H](CNC(=O)/C=C/c3cccc(Cl)c3)NC(=O)[C@H]3CCCN(C3)C(=O)CCSSCCNC2=O)c2ccccc21 [X-Nip-Dap-Me-Trp + Acid 121]
38 | 0.101 | Cn1cc(C[C@@H]2NC(=O)[C@H](CNC(=O)/C=C/c3cccc(C(F)(F)F)c3)NC(=O)[C@H]3CCCN(C3)C(=O)CCSSCCNC2=O)c2ccccc21 [X-Nip-Dap-Me-Trp + Acid 122]
39 | 0.028 | CC(C)c1ccc(/C=C/C(=O)NC[C@@H]2NC(=O)[C@H]3CCCN(C3)C(=O)CCSSCCNC(=O)[C@H](Cc3cn(C)c4ccccc34)NC2=O)cc1 [X-Nip-Dap-Me-Trp + Acid 127]
40 | -0.00464 | Cn1cc(C[C@@H]2NC(=O)[C@H](CNC(=O)c3cnc4ccccc4n3)NC(=O)[C@H]3CCCN(C3)C(=O)CCSSCCNC2=O)c2ccccc21 [X-Nip-Dap-Me-Trp + Acid 130]
41 | 0.443 | O=C(/C=C/c1ccc(F)cc1)NC[C@@H]1NC(=O)[C@H]2CCCN(C2)C(=O)CCSSCCNC(=O)[C@H](Cc2c[nH]c3ccccc23)NC1=O [X-Nip-Dap-Trp + Acid 116]
42 | 0.533 | CCOc1ccc(/C=C/C(=O)NC[C@@H]2NC(=O)[C@H]3CCCN(C3)C(=O)CCSSCCNC(=O)[C@H](Cc3c[nH]c4ccccc34)NC2=O)cc1 [X-Nip-Dap-Trp + Acid 117]
